Test results from the supplement of paper PMC10307832.

Columns and labels:
Assay in all cases: relative viability (nuclei count vs DMSO), 5 days (fraction); higher = more cells survive
IA-LM = system: IA-LM
Outline: (§1)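 Lung cancer cell lines in 1536-well plates got either a single drug or a fixed anchor-drug dose together with five library-drug doses (not always all listed) in √10 steps, by pin tool, on the day after seeding. Nuclei were counted after 5 days, and relative viability is the treated-to-vehicle ratio of nuclei counts. Values are medians of duplicate plates.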

Calu-6 = system: Calu-6
Outline: as §1

A549 = system: A549
Outline: as §1

EBC-1 = system: EBC-1
Outline: as §1

NCI-H1703 = system: NCI-H1703
Outline: as §1

NCI-H1355 = system: NCI-H1355
Outline: as §1

NCI-H520 = system: NCI-H520
Outline: as §1

COR-L 105 = system: COR-L 105
Outline: as §1

NCI-H1666 = system: NCI-H1666
Outline: as §1

NCI-H1299 = system: NCI-H1299
Outline: as §1

LK-2 = system: LK-2
Outline: as §1

LCLC-103H = system: LCLC-103H
Outline: as §1

COc1cc2nccc(Oc3ccc(NC(=O)Nc4cc(C)on4)c(Cl)c3)c2cc1OC [Tivozanib] + CC1(C)CCC(c2ccc(Cl)cc2)=C(CN2CCN(c3ccc(C(=O)NS(=O)(=O)c4ccc(N[C@H](CCN5CCOCC5)CSc5ccccc5)c(S(=O)(=O)C(F)(F)F)c4)cc3)CC2)C1 [Navitoclax] (partner 0.5 µM) showed a relative viability (IA-LM; first compound 0.005 µM) of 0.728, a relative viability (IA-LM; first compound 0.01581 µM) of 0.899 and a relative viability (IA-LM; first compound 0.05 µM) of 0.737. It also gave a relative viability (IA-LM; first compound 0.1581 µM) of 0.574, a relative viability (IA-LM; first compound 0.5 µM) of 0.582 and a relative viability (Calu-6; first compound 0.005 µM) of 0.739. It also gave a relative viability (Calu-6; first compound 0.01581 µM) of 0.896, a relative viability (Calu-6; first compound 0.05 µM) of 0.798 and a relative viability (Calu-6; first compound 0.1581 µM) of 0.874. For the same compound, the relative viability (Calu-6; first compound 0.5 µM) was 0.74, the relative viability (A549; first compound 0.005 µM) was 1.22 and the relative viability (A549; first compound 0.01581 µM) was 1.32. It also gave a relative viability (A549; first compound 0.05 µM) of 1.14, a relative viability (A549; first compound 0.1581 µM) of 1.23 and a relative viability (A549; first compound 0.5 µM) of 1.19. For the same compound, the relative viability (EBC-1; first compound 0.005 µM) was 0.359, the relative viability (EBC-1; first compound 0.01581 µM) was 0.437 and the relative viability (EBC-1; first compound 0.05 µM) was 0.528. It also gave a relative viability (EBC-1; first compound 0.1581 µM) of 0.436, a relative viability (EBC-1; first compound 0.5 µM) of 0.485 and a relative viability (NCI-H1703; first compound 0.005 µM) of 0.369. For the same compound, the relative viability (NCI-H1703; first compound 0.01581 µM) was 0.244, the relative viability (NCI-H1703; first compound 0.05 µM) was 0.219 and the relative viability (NCI-H1703; first compound 0.1581 µM) was 0.251. For the same compound, the relative viability (NCI-H1703; first compound 0.5 µM) was 0.249, the relative viability (NCI-H1355; first compound 0.005 µM) was 0.844 and the relative viability (NCI-H1355; first compound 0.01581 µM) was 0.989. The relative viability (NCI-H1355; first compound 0.05 µM) was 0.996, the relative viability (NCI-H1355; first compound 0.5 µM) was 1 and the relative viability (NCI-H520; first compound 0.005 µM) was 1.09. For the same compound, the relative viability (NCI-H520; first compound 0.01581 µM) was 0.962, the relative viability (NCI-H520; first compound 0.05 µM) was 0.969 and the relative viability (NCI-H520; first compound 0.1581 µM) was 0.782. The relative viability (NCI-H520; first compound 0.5 µM) was 0.887, the relative viability (COR-L 105; first compound 0.01581 µM) was 0.835 and the relative viability (COR-L 105; first compound 0.05 µM) was 0.829. For the same compound, the relative viability (COR-L 105; first compound 0.1581 µM) was 1.17, the relative viability (COR-L 105; first compound 0.5 µM) was 0.743 and the relative viability (NCI-H1666; first compound 0.005 µM) was 0.993. The relative viability (NCI-H1666; first compound 0.01581 µM) was 0.96, the relative viability (NCI-H1666; first compound 0.05 µM) was 1.02 and the relative viability (NCI-H1666; first compound 0.1581 µM) was 0.891. For the same compound, the relative viability (NCI-H1666; first compound 0.5 µM) was 0.867, the relative viability (NCI-H1299; first compound 0.005 µM) was 1.03 and the relative viability (NCI-H1299; first compound 0.01581 µM) was 1.07. The relative viability (NCI-H1299; first compound 0.05 µM) was 1.05, the relative viability (NCI-H1299; first compound 0.1581 µM) was 1.05 and the relative viability (NCI-H1299; first compound 0.5 µM) was 0.981. It also gave a relative viability (LK-2; first compound 0.005 µM) of 0.819, a relative viability (LK-2; first compound 0.01581 µM) of 0.789 and a relative viability (LK-2; first compound 0.05 µM) of 0.952. It also gave a relative viability (LK-2; first compound 0.1581 µM) of 0.802 and a relative viability (LK-2; first compound 0.5 µM) of 0.644.

For CC(=O)O[C@@]12CO[C@@H]1C[C@H](O)[C@@]1(C)C(=O)[C@H](O)C3=C(C)[C@@H](OC(=O)[C@H](O)[C@@H](NC(=O)OC(C)(C)C)c4ccccc4)C[C@@](O)([C@@H](OC(=O)c4ccccc4)[C@H]21)C3(C)C [Docetaxel] + CC(C)C[C@H](NC(=O)[C@H](Cc1ccccc1)NC(=O)c1cnccn1)B(O)O [Bortezomib] (partner 0.002 µM), the relative viability (IA-LM; first compound 0.0002 µM) was 0.471, the relative viability (IA-LM; first compound 0.000632 µM) was 0.192 and the relative viability (IA-LM; first compound 0.002 µM) was 0.11. It also gave a relative viability (IA-LM; first compound 0.006325 µM) of 0.0654, a relative viability (IA-LM; first compound 0.02 µM) of 0.0642 and a relative viability (Calu-6; first compound 0.0002 µM) of 0.95. For the same compound, the relative viability (Calu-6; first compound 0.000632 µM) was 0.828, the relative viability (Calu-6; first compound 0.002 µM) was 0.327 and the relative viability (Calu-6; first compound 0.006325 µM) was 0.182. It also gave a relative viability (Calu-6; first compound 0.02 µM) of 0.106, a relative viability (EBC-1; first compound 0.0002 µM) of 0.479 and a relative viability (EBC-1; first compound 0.000632 µM) of 0.385. The relative viability (EBC-1; first compound 0.002 µM) was 0.237, the relative viability (EBC-1; first compound 0.006325 µM) was 0.27 and the relative viability (EBC-1; first compound 0.02 µM) was 0.174. It also gave a relative viability (NCI-H1703; first compound 0.0002 µM) of 0.256, a relative viability (NCI-H1703; first compound 0.000632 µM) of 0.249 and a relative viability (NCI-H1703; first compound 0.006325 µM) of 0.149. The relative viability (NCI-H1703; first compound 0.02 µM) was 0.0944, the relative viability (NCI-H1355; first compound 0.0002 µM) was 1.2 and the relative viability (NCI-H1355; first compound 0.000632 µM) was 1.14. It also gave a relative viability (NCI-H1355; first compound 0.002 µM) of 0.673, a relative viability (NCI-H1355; first compound 0.006325 µM) of 0.302 and a relative viability (NCI-H1355; first compound 0.02 µM) of 0.224. It also gave a relative viability (NCI-H520; first compound 0.0002 µM) of 0.45, a relative viability (NCI-H520; first compound 0.000632 µM) of 0.233 and a relative viability (NCI-H520; first compound 0.002 µM) of 0.251. For the same compound, the relative viability (NCI-H520; first compound 0.006325 µM) was 0.172, the relative viability (NCI-H520; first compound 0.02 µM) was 0.108 and the relative viability (LCLC-103H; first compound 0.0002 µM) was 1.15. For the same compound, the relative viability (LCLC-103H; first compound 0.000632 µM) was 1.12, the relative viability (LCLC-103H; first compound 0.002 µM) was 0.714 and the relative viability (LCLC-103H; first compound 0.006325 µM) was 0.589. For the same compound, the relative viability (LCLC-103H; first compound 0.02 µM) was 0.402, the relative viability (COR-L 105; first compound 0.0002 µM) was 0.734 and the relative viability (COR-L 105; first compound 0.000632 µM) was 0.595. The relative viability (COR-L 105; first compound 0.002 µM) was 0.423, the relative viability (COR-L 105; first compound 0.006325 µM) was 0.304 and the relative viability (COR-L 105; first compound 0.02 µM) was 0.229. For the same compound, the relative viability (NCI-H1666; first compound 0.0002 µM) was 0.582, the relative viability (NCI-H1666; first compound 0.000632 µM) was 0.452 and the relative viability (NCI-H1666; first compound 0.002 µM) was 0.378. It also gave a relative viability (NCI-H1666; first compound 0.006325 µM) of 0.249, a relative viability (NCI-H1666; first compound 0.02 µM) of 0.205 and a relative viability (NCI-H1299; first compound 0.0002 µM) of 1.05. It also gave a relative viability (NCI-H1299; first compound 0.000632 µM) of 0.997, a relative viability (NCI-H1299; first compound 0.002 µM) of 0.948 and a relative viability (NCI-H1299; first compound 0.006325 µM) of 0.586. For the same compound, the relative viability (NCI-H1299; first compound 0.02 µM) was 0.503.
